These results are taken from US12673945B2, “3-((8-((1H-pyrazol-4-yl)amino)imidazo[1,2-a]pyridin-3-yl)ethinyl)-n-phenylbenzamide derivative, method for preparing same, and pharmaceutical composition containing same as active ingredient for prevention or treatment of cancer” (DAEGU-GYEONGBUK MEDICAL INNOVATION FOUNDATION, priority 2020, dated 2026).

Holding throughout (format): cell-based
In one assay the test system is Parental (Ba/F3). Put plainly: Ba/F3 cell proliferation inhibition. To be noted: BaF3; 72 hours, Cell Counting Kit-8. The procedure: (§1) […] lymphocyte cells, Parental (Ba/F3) and T315I-Bcr-Abl (Ba/F3) were seeded in 96-well plates at the density of 1×10^4/90 μL/well. A culture solution containing 9 concentrations (0.015 to 100 μM) of each example compound serially diluted in 3 folds or DMSO (control) were added to the plate ([…]) to a final concentration of 0 to 10 μM. The plate was incubated in a 37° C. CO2 incubator for 72 hours.
(§2) After incubation for 72 hours, the plate treated with the compound was treated with Cell Counting Kit-8 (Dojindo Molecular Technologies, Inc) solution at the concentration of 10 μL/well, and then mixed well. Then, the plate was incubated in a CO2 incubator at 37° C. for 2 hours, and absorbance at 450 nm was measured with a microplate reader. Data were expressed as percentage compared to vehicle treated cells and GI50 values were calculated using GraphPad Prism 5.0 (GraphPad software Inc., San Diego) […].
(In general: Formazan colour is commonly taken as a measure of viable cells.)

The next assay concerns T315I-Bcr-Abl (Ba/F3). Put plainly: Ba/F3 cell proliferation inhibition. The note with it: BaF3; 72 hours, Cell Counting Kit-8. The protocol:
as §1, §2

The next assay has as its system KOPM28 cells. Put plainly: human CML cell proliferation inhibition. To be noted: 72 hours, Cell Counting Kit-8. The procedure: (§3) In order to evaluate the therapeutic effect of the compound according to the present invention on chronic myelogenous leukemia (CML), the following experiment was performed, and the results are shown in Table 6 below. Inhibitory activity to Bcr-Abl kinase was evaluated through the experiment using TCCS and KOPM28 cells, and inhibitory activity to T315I-Bcr-Abl kinase was evaluated through the experiment using T315I-TCCS and T315I-KOPM28 cells.
(§4) Human chronic myelogenous leukemia (CML) cells used in the experiment were TCCS, T315I-TCCS, KOPM28 and T315I-KOPM28, and the four types of cells were provided by University of Yamanashi.
(§5) Four types of human CML cells were each seeded in 96-well plates at the density of 1×10^4/90 μL/well. A culture solution containing 9 concentrations (0.000256 to 100 μM) of each example compound serially diluted in 5 folds or DMSO (control) were added to the plate (10 μL/well) to a final concentration of 0 to 10 μM. The plate was incubated in a 37° C. CO2 incubator for 72 hours.
(§6) After incubation for 72 hours, the plate treated with the compound was treated with Cell Counting Kit-8 (Dojindo Molecular Technologies, Inc) solution at the concentration of 10 μL/well, and then mixed well. Then, the plate was incubated in a CO2 incubator at 37° C. for 2 hours, and absorbance at 450 nm was measured with a microplate reader. Data were expressed as percentage compared to vehicle treated cells and GI50 values were calculated using GraphPad Prism 8.0 (GraphPad software Inc., San Diego).

The next assay relates to T315I-KOPM28 cells. Kind of assay: human CML cell proliferation inhibition. The note with it: 72 hours, Cell Counting Kit-8. The procedure: as §3, §4, §5, §6
Another assay concerns T315I-TCCS cells. Put plainly: human CML cell proliferation inhibition. The note with it: 72 hours, Cell Counting Kit-8. The protocol:
as §3, §4, §5, §6

For another assay, the system named is TCCS cells. Kind of assay: human CML cell proliferation inhibition. To be noted: 72 hours, Cell Counting Kit-8. The protocol: as §3, §4, §5, §6

As usually defined, the GI50 is the concentration at which growth is held to half of that of the control.

Each structure is given as a SMILES string. Where only a bound is given, the exact number is not on record here.

Regarding `Cc1cc(F)c(C(=O)Nc2cc(Cn3cncn3)cc(C(F)(F)F)c2)cc1C#Cc1cnc2c(Nc3cnn(C)c3)cccn12` [Example 74, N-(3-((1H-1,2,4-triazol-1-yl)methyl)-5-(trifluoromethyl)phenyl)-2-fluoro-4-methyl-5-((8-((1-methyl-1H-pyrazol-4-yl)amino)imidazo[1,2-a]pyridin-3-yl)ethynyl)benzamide], the GI50 in the assay with Parental (Ba/F3) was > 5000 nM; in the assay on T315I-Bcr-Abl (Ba/F3) it was < 50 nM; with KOPM28 cells, < 10 nM; in the assay on T315I-KOPM28 cells it was 100 nM; in the assay on T315I-TCCS cells, 100 nM; with TCCS cells, < 10 nM.

Take `Cc1cc(F)c(C(=O)Nc2cc(CN3CCN(CCO)CC3)cc(C(F)(F)F)c2)cc1C#Cc1cnc2c(Nc3cnn(C)c3)cccn12` [Example 69, 2-fluoro-N-(3-((4-(2-hydroxyethyl)piperazin-1-yl)methyl)-5-(trifluoromethyl)phenyl)-4-methyl-5-((8-((1-methyl-1H-pyrazol-4-yl)amino)imidazo[1,2-a]pyridin-3-yl)ethynyl)benzamide]: the GI50 in the assay with Parental (Ba/F3) was > 5000 nM; in the assay on T315I-Bcr-Abl (Ba/F3), 50 to 500 nM; with KOPM28 cells, < 10 nM; with T315I-KOPM28 cells, > 100 nM; in the assay on T315I-TCCS cells, > 100 nM; with TCCS cells it was 100 nM.

With `Cc1cc(F)c(C(=O)Nc2ccc(CN3CCC(N(C)C)C3)c(C(F)(F)F)c2)cc1C#Cc1cnc2c(Nc3cn[nH]c3)cccn12` (stereo not drawn) [Example 110, 5-((8-((1H-pyrazol-4-yl)amino)imidazo[1,2-a]pyridin-3-yl)ethynyl)-N-(4-((3-(dimethylamino)pyrrolidin-1-yl)methyl)-3-(trifluoromethyl)phenyl)-2-fluoro-4-methylbenzamide], the concentration for 50% growth inhibition (GI50) in the assay on Parental (Ba/F3) is 500 to 5000 nM; with T315I-Bcr-Abl (Ba/F3) it was < 50 nM; in the assay with KOPM28 cells it was < 10 nM; with T315I-KOPM28 cells, 100 nM; in the assay with T315I-TCCS cells it was 100 nM; in the assay on TCCS cells, < 10 nM.

For `Cc1c(F)cc(C(=O)Nc2cc(Oc3ccncc3)cc(C(F)(F)F)c2)cc1C#Cc1cnc2c(Nc3cnn(C)c3)cccn12` [Example 8, 3-fluoro-4-methyl-5-((8-((1-methyl-1H-pyrazol-4-yl)amino)imidazo[1,2-a]pyridin-3-yl)ethynyl)-N-(3-(pyridin-4-yloxy)-5-(trifluoromethyl)phenyl)benzamide], the concentration for 50% growth inhibition (GI50) in the assay with Parental (Ba/F3) was > 5000 nM; in the assay with T315I-Bcr-Abl (Ba/F3) it was < 50 nM; in the assay on KOPM28 cells, < 10 nM; with T315I-KOPM28 cells, 100 nM; in the assay with T315I-TCCS cells, 100 nM; with TCCS cells it was < 10 nM.

In the case of `Cc1cc(F)c(C(=O)Nc2cc(Oc3ccncc3)cc(C(F)(F)F)c2)cc1C#Cc1cnc2c(Nc3cn[nH]c3)cccn12` [Example 101, 5-((8-((1H-pyrazol-4-yl)amino)imidazo[1,2-a]pyridin-3-yl)ethynyl)-2-fluoro-4-methyl-N-(3-(pyridin-4-yloxy)-5-(trifluoromethyl)phenyl)benzamide], the concentration for 50% growth inhibition (GI50) with Parental (Ba/F3) was > 5000 nM; in the assay with T315I-Bcr-Abl (Ba/F3), < 50 nM; with KOPM28 cells it was < 10 nM; with T315I-KOPM28 cells, 100 nM; in the assay with T315I-TCCS cells, < 10 nM; in the assay on TCCS cells, < 10 nM.

As for `Cc1cc(F)c(C(=O)Nc2cc(N3CCN(C)C(=O)C3)cc(C(C)(C)C#N)c2)cc1C#Cc1cnc2c(Nc3cn[nH]c3)cccn12` [Example 82, 5-((8-((1H-pyrazol-4-yl)amino)imidazo[1,2-a]pyridin-3-yl)ethynyl)-N-(3-(2-cyanopropan-2-yl)-5-(4-methyl-3-oxopiperazin-1-yl)phenyl)-2-fluoro-4-methylbenzamide], the GI50 is 500 to 5000 nM with Parental (Ba/F3); 50 to 500 nM in the assay with T315I-Bcr-Abl (Ba/F3); < 10 nM in the assay with KOPM28 cells; > 100 nM in the assay with T315I-KOPM28 cells; 100 nM in the assay on T315I-TCCS cells; < 10 nM with TCCS cells.

In the case of `Cc1cc(F)c(C(=O)Nc2cc(-c3ccncc3)cc(C(F)(F)F)c2)cc1C#Cc1cnc2c(Nc3cn[nH]c3)cccn12` [Example 97, 5-((8-((1H-pyrazol-4-yl)amino)imidazo[1,2-a]pyridin-3-yl)ethynyl)-2-fluoro-4-methyl-N-(3-(pyridin-4-yl)-5-(trifluoromethyl)phenyl)benzamide], the concentration for 50% growth inhibition (GI50) in the assay with Parental (Ba/F3) was > 5000 nM; in the assay on T315I-Bcr-Abl (Ba/F3) it was 50 to 500 nM; in the assay with KOPM28 cells it was < 10 nM; with T315I-KOPM28 cells, > 100 nM; with T315I-TCCS cells it was 100 nM; with TCCS cells, < 10 nM.

Take `Cc1cn(-c2cc(NC(=O)c3cc(C#Cc4cnc5c(Nc6cn[nH]c6)cccn45)c(C)cc3Cl)cc(C(C)(C)C#N)c2)cn1` [Example 76, 5-((8-((1H-pyrazol-4-yl)amino)imidazo[1,2-a]pyridin-3-yl)ethynyl)-2-chloro-N-(3-(2-cyanopropan-2-yl)-5-(4-methyl-1H-imidazol-1-yl)phenyl)-4-methylbenzamide]: the concentration for 50% growth inhibition (GI50) was > 5000 nM in the assay on Parental (Ba/F3); < 50 nM in the assay on T315I-Bcr-Abl (Ba/F3); < 10 nM in the assay on KOPM28 cells; 100 nM in the assay with T315I-KOPM28 cells; 100 nM in the assay on T315I-TCCS cells; < 10 nM in the assay with TCCS cells.

For the compound `Cc1cn(-c2cc(NC(=O)c3cc(C#Cc4cnc5c(Nc6cn[nH]c6)cccn45)c(C)cc3F)cc(C(C)(C)C#N)c2)cn1` [Example 75, 5-((8-((1H-pyrazol-4-yl)amino)imidazo[1,2-a]pyridin-3-yl)ethynyl)-N-(3-(2-cyanopropan-2-yl)-5-(4-methyl-1H-imidazol-1-yl)phenyl)-2-fluoro-4-methylbenzamide], the GI50 in the assay with Parental (Ba/F3) is > 5000 nM; in the assay on T315I-Bcr-Abl (Ba/F3), < 50 nM; in the assay with KOPM28 cells it was < 10 nM; with T315I-KOPM28 cells, 100 nM; in the assay with T315I-TCCS cells, 100 nM; in the assay with TCCS cells, < 10 nM.

For `Cc1cc(F)c(C(=O)Nc2cc(CN3CCN(C)C(=O)C3)cc(C(C)(C)C#N)c2)cc1C#Cc1cnc2c(Nc3cn[nH]c3)cccn12` [Example 88, 5-((8-((1H-pyrazol-4-yl)amino)imidazo[1,2-a]pyridin-3-yl)ethynyl)-N-(3-(2-cyanopropan-2-yl)-5-((4-methyl-3-oxopiperazin-1-yl)methyl)phenyl)-2-fluoro-4-methylbenzamide], the GI50 is 500 to 5000 nM in the assay on Parental (Ba/F3); 50 to 500 nM with T315I-Bcr-Abl (Ba/F3); < 10 nM in the assay on KOPM28 cells; > 100 nM in the assay with T315I-KOPM28 cells; > 100 nM with T315I-TCCS cells; < 10 nM with TCCS cells.

As to `Cc1cc(F)c(C(=O)Nc2cc(CN3CCC(N(C)C)C3)cc(C(C)(C)C#N)c2)cc1C#Cc1cnc2c(Nc3cnn(C)c3)cccn12` (stereo not drawn) [Example 29, N-(3-(2-cyanopropan-2-yl)-5-((3-(dimethylamino)pyrrolidin-1-yl)methyl)phenyl)-2-fluoro-4-methyl-5-((8-((1-methyl-1H-pyrazol-4-yl)amino)imidazo[1,2-a]pyridin-3-yl)ethynyl)benzamide], the 50% growth inhibitory concentration (GI50) in the assay on Parental (Ba/F3) is 500 to 5000 nM; in the assay with T315I-Bcr-Abl (Ba/F3), 50 to 500 nM; in the assay with KOPM28 cells, < 10 nM; with T315I-KOPM28 cells, 100 nM; in the assay with T315I-TCCS cells, 100 nM; with TCCS cells it was < 10 nM.

`Cc1cc(F)c(C(=O)Nc2cc(Cn3cncn3)cc(C(F)(F)F)c2)cc1C#Cc1cnc2c(Nc3cn[nH]c3)cccn12` [Example 108, N-(3-((1H-1,2,4-triazol-1-yl)methyl)-5-(trifluoromethyl)phenyl)-5-((8-((1H-pyrazol-4-yl)amino)imidazo[1,2-a]pyridin-3-yl)ethynyl)-2-fluoro-4-methylbenzamide]: the GI50 was > 5000 nM in the assay with Parental (Ba/F3); 50 to 500 nM with T315I-Bcr-Abl (Ba/F3); < 10 nM with KOPM28 cells; > 100 nM in the assay on T315I-KOPM28 cells; 100 nM with T315I-TCCS cells; < 10 nM in the assay on TCCS cells.

In the case of `Cc1cc(F)c(C(=O)Nc2cc(OCCCN(C)C)cc(C(F)(F)F)c2)cc1C#Cc1cnc2c(Nc3cnn(C)c3)cccn12` [Example 51, N-(3-(3-(dimethylamino)propoxy)-5-(trifluoromethyl)phenyl)-2-fluoro-4-methyl-5-((8-((1-methyl-1H-pyrazol-4-yl)amino)imidazo[1,2-a]pyridin-3-yl)ethynyl)benzamide], the GI50 was > 5000 nM in the assay with Parental (Ba/F3); 50 to 500 nM with T315I-Bcr-Abl (Ba/F3); < 10 nM with KOPM28 cells; 100 nM in the assay with T315I-KOPM28 cells; 100 nM in the assay on T315I-TCCS cells; 100 nM in the assay on TCCS cells.
